{"source": "patent US20090155784A1", "about": "“ASSESSMENT OF ASTHMA AND ALLERGEN-DEPENDENT GENE EXPRESSION” (Wyeth, priority 2007, published 2009)", "test_system": "PBMCs from healthy volunteers", "test": "HG-U133A baseline gene expression in PBMCs of healthy volunteers (HV), cPLA2 inhibitor in the absence of allergen (no AG)", "format": "cell-based, human", "excerpt": "PBMCs were stimulated in vitro with a cocktail containing 4 different allergens from house dust mite, ragweed and cat. Recombinant allergens, Der p1, Der f2, Fel d1 (Indoor Biotech, Charlottesville, Va.) and natural ragweed allergen (Allergy Lab, Seattle, Wash.) were selected and screened for endotoxin contamination (LAL Endotoxin Test, Catalog #HIT302, sensitivity, 0.0001 Eu/ml, Cell Sciences, Canton, Mass.). The sensitivity of the subjects was unknown but the allergens were chosen based on the estimate that 80% of allergic individuals are believed to react to one or more of these allergens. Culture medium contained RPMI-1640 (Sigma) with 10% heat inactivated FCS (Sigma St. Louis, Mo.) and 100 unit/mL Penicillin and […] Streptomycin and 0.292 mg/mL Glutamine (GIBCO RL Invitrogen, Carlsbad, Calif.). The final allergen cocktail concentrations in culture medium were: Der p1 and Der f2 (dust mite), 1 mg/ml; Fel d1 (cat), 1.25 mg/ml; ragweed, 125 mg/ml. The total level of endotoxin contamination in culture medium was 0.057 Eu/ml. The cPLA2 inhibitor 4-{3-[1-benzhydryl-5-chloro-2-(2-{[(2,6-dimethylbenzyl)sulfonyl]amino}ethyl)-1H-indol-3-yl]propyl}benzoic acid was used at a concentration of 0.3 μM/ml. Zileuton, a 5-lipoxygenase inhibitor, was added at a concentration of 5 μM. The inhibitory activity of both the cPLA2 inhibitor and Zileuton samples were verified in a human whole blood assay. After 6 days in culture approximately 200 μL of supernatant was removed using an 8-channel pipettor without disturbing the cell pellet and placed into a collection plate for cytokine ELISA assays. To the remaining cell pellet 100 μL of RLT lysis buffer containing 1% beta-mercaptoethanol was added and snap frozen for RNA purification.\nRNA was purified using QIA shredders and Rneasy mini kits (Qiagen, Valencia, Calif.). PBMC pellets frozen in RLT lysis buffer containing 1% β-mercaptoethanol were thawed and processed for total RNA isolation using the QIA shredder and RNeasy mini kit. A phenol:chloroform extraction was then performed, and the RNA was repurified using the RNeasy mini kit reagents. Eluted RNA was quantified using a Spectramax96 well plate UV reader (Molecular Devices, Sunnyvale, Calif., USA) monitoring A260/280 OD values. The quality of each RNA sample was assessed by capillary electrophoresis alongside an RNA molecular weight ladder on the Agilent 2100 bioanalyzer (Agilent Technologies, Palo Alto, Calif., USA). RNA samples were assigned quality values of intact (distinct 18S and 28S bands); partially degraded (discernible 18S and 28S bands with presence of low molecular weight bands) or completely degraded (no discernible 18S and 28S bands).\nLabeled targets for oligonucleotide arrays were prepared using a modification of the procedure described by Lockhart et al. (Lockhart (1996) Nat. Biotechnol. 14:1675-80). Labeled targets were hybridized to the HG-U133A Affymetrix GeneChip Array as described in the Affymetrix technical manual. Eleven biotinylated control transcripts ranging in abundance from 3 parts per million (ppm) to 100 ppm were spiked into each sample to function as a standard curve (Hill (2001) Genome Biol. 2:RESEARCH0055). GeneChip MAS 5.0 software was used to evaluate the hybridization intensity, compute the signal value for each probe set and make an absent/present call.\nGeneChips were required to pass the pre-set quality control criteria that the RNA quality metric required a 5′:3′ ratio. Two asthma subjects were excluded from the study due to failure to meet the RNA quality metric and 2 GeneChips from the group treated with cPLA2a inhibitor were excluded for the same reason. The signal value for each probe set was converted into a frequency value representative of the number of transcripts present in 10^6 transcripts by reference to the standard curve (Hill (2001) Genome Biol. 2:RESEARCH0055). […]", "key": {"[1]": {"conditions": "healthy population, no allergen"}}}
{"smiles": "Cc1cccc(C)c1CS(=O)(=O)NCCc1c(CCCc2ccc(C(=O)O)cc2)c2cc(Cl)ccc2n1C(c1ccccc1)c1ccccc1", "note": "[cPLA2 inhibitor, 4-{3-[1-benzhydryl-5-chloro-2-(2-{[(2,6-dimethylbenzyl)sulfonyl]amino}ethyl)-1H-indol-3-yl]propyl}benzoic acid]", "values": [{"measurement": "probes significantly downregulated in the presence of cPLA2 inhibition", "setting": "[1]", "result": 43, "unit": "probes"}, {"measurement": "probes significantly upregulated in the presence of cPLA2 inhibition", "setting": "[1]", "result": 36, "unit": "probes"}, {"measurement": "Fold Change cPLA2 inhibitor vs. no AG HV", "setting": "probeset 44673_at, gene SN", "result": 1.425, "unit": "fold"}, {"measurement": "Fold Change cPLA2 inhibitor vs. no AG HV", "setting": "probeset 58696_at, gene RRP41", "result": 1.202, "unit": "fold"}, {"measurement": "Fold Change cPLA2 inhibitor vs. no AG HV", "setting": "probeset 200886_s_at, gene PGAM1", "result": "−1.153", "unit": "fold"}, {"measurement": "Fold Change cPLA2 inhibitor vs. no AG HV", "setting": "probeset 200887_s_at, gene STAT1", "result": 1.158, "unit": "fold"}, {"measurement": "Fold Change cPLA2 inhibitor vs. no AG HV", "setting": "probeset 200923_at, gene LGALS3BP", "result": 1.268, "unit": "fold"}, {"measurement": "Fold Change cPLA2 inhibitor vs. no AG HV", "setting": "probeset 200976_s_at, gene TAX1BP1", "result": 1.159, "unit": "fold"}, {"measurement": "Fold Change cPLA2 inhibitor vs. no AG HV", "setting": "probeset 201061_s_at, gene STOM", "result": 1.242, "unit": "fold"}, {"measurement": "Fold Change cPLA2 inhibitor vs. no AG HV", "setting": "probeset 201090_x_at, gene K-ALPHA-1", "result": 1.122, "unit": "fold"}, {"measurement": "Fold Change cPLA2 inhibitor vs. no AG HV", "setting": "probeset 201118_at, gene PGD", "result": 1.22, "unit": "fold"}, {"measurement": "Fold Change cPLA2 inhibitor vs. no AG HV", "setting": "probeset 201298_s_at, gene C2ORF6", "result": 1.106, "unit": "fold"}, {"measurement": "Fold Change cPLA2 inhibitor vs. no AG HV", "setting": "probeset 201463_s_at, gene TALDO1", "result": 1.153, "unit": "fold"}, {"measurement": "Fold Change cPLA2 inhibitor vs. no AG HV", "setting": "probeset 201649_at, gene UBE2L6", "result": 1.19, "unit": "fold"}, {"measurement": "Fold Change cPLA2 inhibitor vs. no AG HV", "setting": "probeset 201785_at, gene RNASE1", "result": "−3.602", "unit": "fold"}, {"measurement": "Fold Change cPLA2 inhibitor vs. no AG HV", "setting": "probeset 201945_at, gene FURIN", "result": 1.348, "unit": "fold"}, {"measurement": "Fold Change cPLA2 inhibitor vs. no AG HV", "setting": "probeset 202068_s_at, gene LDLR", "result": 1.388, "unit": "fold"}, {"measurement": "Fold Change cPLA2 inhibitor vs. no AG HV", "setting": "probeset 202193_at, gene LIMK2", "result": 1.457, "unit": "fold"}, {"measurement": "Fold Change cPLA2 inhibitor vs. no AG HV", "setting": "probeset 202245_at, gene LSS", "result": 1.264, "unit": "fold"}, {"measurement": "Fold Change cPLA2 inhibitor vs. no AG HV", "setting": "probeset 202269_x_at, gene GBP1", "result": 1.475, "unit": "fold"}, {"measurement": "Fold Change cPLA2 inhibitor vs. no AG HV", "setting": "probeset 202307_s_at, gene TAP1", "result": 1.313, "unit": "fold"}, {"measurement": "Fold Change cPLA2 inhibitor vs. no AG HV", "setting": "probeset 202308_at, gene SREBF1", "result": 1.436, "unit": "fold"}, {"measurement": "Fold Change cPLA2 inhibitor vs. no AG HV", "setting": "probeset 202510_s_at, gene TNFAIP2", "result": 1.355, "unit": "fold"}, {"measurement": "Fold Change cPLA2 inhibitor vs. no AG HV", "setting": "probeset 202531_at, gene IRF1", "result": 1.259, "unit": "fold"}, {"measurement": "Fold Change cPLA2 inhibitor vs. no AG HV", "setting": "probeset 202626_s_at, gene LYN", "result": 1.54, "unit": "fold"}, {"measurement": "Fold Change cPLA2 inhibitor vs. no AG HV", "setting": "probeset 202841_x_at, gene OGFR", "result": 1.239, "unit": "fold"}, {"measurement": "Fold Change cPLA2 inhibitor vs. no AG HV", "setting": "probeset 202847_at, gene PCK2", "result": 1.344, "unit": "fold"}, {"measurement": "Fold Change cPLA2 inhibitor vs. no AG HV", "setting": "probeset 202859_x_at, gene IL8", "result": 2.42, "unit": "fold"}, {"measurement": "Fold Change cPLA2 inhibitor vs. no AG HV", "setting": "probeset 202917_s_at, gene S100A8", "result": 1.662, "unit": "fold"}, {"measurement": "Fold Change cPLA2 inhibitor vs. no AG HV", "setting": "probeset 203922_s_at, gene CYBB", "result": 1.52, "unit": "fold"}, {"measurement": "Fold Change cPLA2 inhibitor vs. no AG HV", "setting": "probeset 203923_s_at, gene CYBB", "result": 1.214, "unit": "fold"}, {"measurement": "Fold Change cPLA2 inhibitor vs. no AG HV", "setting": "probeset 204034_at, gene ETHE1", "result": 1.212, "unit": "fold"}, {"measurement": "Fold Change cPLA2 inhibitor vs. no AG HV", "setting": "probeset 204224_s_at, gene GCH1", "result": 1.48, "unit": "fold"}, {"measurement": "Fold Change cPLA2 inhibitor vs. no AG HV", "setting": "probeset 204326_x_at, gene UNK_NM_002450", "result": 2.024, "unit": "fold"}, {"measurement": "Fold Change cPLA2 inhibitor vs. no AG HV", "setting": "probeset 204745_x_at, gene MT1G", "result": 2.215, "unit": "fold"}, {"measurement": "Fold Change cPLA2 inhibitor vs. no AG HV", "setting": "probeset 204858_s_at, gene ECGF1", "result": 1.292, "unit": "fold"}, {"measurement": "Fold Change cPLA2 inhibitor vs. no AG HV", "setting": "probeset 204929_s_at, gene VAMP5", "result": 1.472, "unit": "fold"}, {"measurement": "Fold Change cPLA2 inhibitor vs. no AG HV", "setting": "probeset 205322_s_at, gene MTF1", "result": 1.553, "unit": "fold"}, {"measurement": "Fold Change cPLA2 inhibitor vs. no AG HV", "setting": "probeset 205872_x_at, gene UNK_NM_022359", "result": 1.629, "unit": "fold"}, {"measurement": "Fold Change cPLA2 inhibitor vs. no AG HV", "setting": "probeset 205992_s_at, gene IL15", "result": 1.522, "unit": "fold"}, {"measurement": "Fold Change cPLA2 inhibitor vs. no AG HV", "setting": "probeset 206025_s_at, gene TNFAIP6", "result": 1.671, "unit": "fold"}, {"measurement": "Fold Change cPLA2 inhibitor vs. no AG HV", "setting": "probeset 206026_s_at, gene TNFAIP6", "result": 1.866, "unit": "fold"}, {"measurement": "Fold Change cPLA2 inhibitor vs. no AG HV", "setting": "probeset 206637_at, gene GPR105", "result": 1.797, "unit": "fold"}, {"measurement": "Fold Change cPLA2 inhibitor vs. no AG HV", "setting": "probeset 207091_at, gene P2RX7", "result": 1.272, "unit": "fold"}, {"measurement": "Fold Change cPLA2 inhibitor vs. no AG HV", "setting": "probeset 207277_at, gene CD209", "result": 1.574, "unit": "fold"}, {"measurement": "Fold Change cPLA2 inhibitor vs. no AG HV", "setting": "probeset 207533_at, gene CCL1", "result": 2.229, "unit": "fold"}, {"measurement": "Fold Change cPLA2 inhibitor vs. no AG HV", "setting": "probeset 207697_x_at, gene LILRB2", "result": 1.484, "unit": "fold"}, {"measurement": "Fold Change cPLA2 inhibitor vs. no AG HV", "setting": "probeset 208071_s_at, gene LAIR1", "result": 1.82, "unit": "fold"}, {"measurement": "Fold Change cPLA2 inhibitor vs. no AG HV", "setting": "probeset 208373_s_at, gene P2RY6", "result": 1.593, "unit": "fold"}, {"measurement": "Fold Change cPLA2 inhibitor vs. no AG HV", "setting": "probeset 208671_at, gene TDE2", "result": "−1.137", "unit": "fold"}, {"measurement": "Fold Change cPLA2 inhibitor vs. no AG HV", "setting": "probeset 208699_x_at, gene TKT", "result": 1.243, "unit": "fold"}]}
